In patent publication US11713338B2, “Cyclic peptides multimers targeting α-4-β-7 integrin” (priority 2016, dated 2023):
Where two headings read alike, the source gives them in different places.

Columns and labels:
[1] = target: T1, VCAM-1 binding to α4β7-negative Th memory cells (Homo sapiens, UniProt P05556+P13612); assay: VCAM-1 competition / receptor occupancy assay in human whole blood, α4β7-negative Th memory cells; format: cell-based
T1 construct: endogenous in cells
Protocol: Analyte Competition Assay in CD4+ Integrin α4+β7-Lo Memory T Cells
Receptor occupancy in primary cells was determined by measuring the amount of biotinylated human recombinant MAdCAM-1-FC or human recombinant VCAM-1-Fc bound to selected cell populations using flow cytometry. Human recombinant MAdCAM-1-FC or human recombinant VCAM-1-FC (R&D systems) were biotinylated using commercially available reagents and protocol (Pierce).
Whole blood was collected from human donors in sodium heparin tubes. A volume of 100 microL of blood was incubated with compound and 4 mM MnCL2 for 1 hour at room temperature. Cells were washed twice with 1 mL of 1X DPBS calcium magnesium free (CMF) (ThermoFisher Scientific) and resuspended in 100 microL of DPBS CMF.
Biotinylated human recombinant MAdCAM-1-Fc or VCAM-1-Fc were added at saturating concentration and incubated at room temperature for 1 hour. A volume of 2 mL of 1X BD FACS Lyse (BD Biosciences) was then added and the mixture was incubated for 8-12 minutes at room temperature in the dark to lyse red blood cells. Cells were washed with 1 mL stain buffer-FBS (BD Biosciences) and resuspended in 100 μl stain Buffer-FBS (BD Biosciences) containing 4 mM MnCl2. Biotinylated-rhMAdCAM-1 was applied at a saturating concentration of 1200 ng/mL to compete with test article binding and incubated at room temperature for 1 hour. Cells were then washed with 1 mL stain buffer-FBS and resuspended in […] stain buffer-FBS. The cells were incubated in the dark for 30 minutes at room temperature with 1 ul Streptavidin APC (Biolegend 0.2 mg/ml) and a panel of antibodies for the detection of memory T helper a4b7-positive cells subset. And amount of 5.0 ul each of the following antibodies were used; CD45 FITC (BioLegend 200 ug/ml), CD29 APC Cy7 (BioLegend 100 ug/ml), Integrin beta7 PE, (BioLegend concentration 50 μg/mL), CD49d V421 (BioLegend 50 μg/mL), CD3 V510 (BioLegend 30 μg/mL), CD4 PECy7 (BioLegend 100 μg/mL), CD45RO PerCP, BioLegend 200 μg/mL). The cells were then washed with stain-buffer-FBS and resuspended in 150 microL stain buffer-FBS for acquisition on the flow cytometer (BD FACSCanto™ flow cytometer and BDFACSDiva™ software). FACS data was acquire by electronic gating on the basis of forward versus side scatter, The cytometer was set to collect 20,000 events in each tube. Cell population were determined using the following markers, CD45+, CD3+, CD4+, CD45RO+, CD49d+, integrin b7, biotinylated ligands.
Compound receptor occupancy was defined as the decrease in the number of integrin β7+ or integrin β7-lo cells binding biotinylated rhMAdCAM-1 or rhVCAM-1, respectively.
(§1) Receptor occupancy was calculated with the following equation: 100−((% ligand-positive cells with compound/% ligand-positive cells DMSO)*100) In Vivo T Lymphocyte Trafficking Analysis in Mouse Model of Colitis

[2] = system: α4β7+ T helper memory lymphocytes in mesenteric lymph nodes; assay: In vivo T lymphocyte trafficking analysis in DSS mouse model of colitis; conditions: DSS-treated mice
Protocol: as §1
Animal care: The animal care facility employed is accredited by the Canadian Council on Animal Care (CCAC). This study was approved by a certified Animal Care Committee and complied with CACC standards and regulations governing the use of animals for research. The animals were housed under standardized environmental conditions. A standard certified commercial rodent diet was provided ad libitum. Tap water was provided ad libitum at all times.
Dextran sulfate sodium (DSS) was administered to C57Bl/6 female mice for five days through addition to their drinking water at 3%. Body weight and disease activity index (“DAI”) were measured on Day 5 in order to distribute DSS-treated animals in uniform groups prior to dosing. DAI was scored based on the severity three specific symptoms associated with colitis: 1—blood in stool (negative hemoccult, positive hemoccult, blood traces in stool visible, rectal bleeding); 2—stool consistency (normal, soft but still formed, very soft, diarrhea); 3—body weight loss. […]
Statistical analysis was performed using GraphPad Prism. Differences among groups were evaluated by two-way ANOVA, with a 95% confidence interval.

[3] = human whole blood, inhibition of VCAM binding to α4β7-negative Th memory cells, FACS, read-out: VCAM FACS α4+β7− Th mem

T1 sequence (P13612 34-1032): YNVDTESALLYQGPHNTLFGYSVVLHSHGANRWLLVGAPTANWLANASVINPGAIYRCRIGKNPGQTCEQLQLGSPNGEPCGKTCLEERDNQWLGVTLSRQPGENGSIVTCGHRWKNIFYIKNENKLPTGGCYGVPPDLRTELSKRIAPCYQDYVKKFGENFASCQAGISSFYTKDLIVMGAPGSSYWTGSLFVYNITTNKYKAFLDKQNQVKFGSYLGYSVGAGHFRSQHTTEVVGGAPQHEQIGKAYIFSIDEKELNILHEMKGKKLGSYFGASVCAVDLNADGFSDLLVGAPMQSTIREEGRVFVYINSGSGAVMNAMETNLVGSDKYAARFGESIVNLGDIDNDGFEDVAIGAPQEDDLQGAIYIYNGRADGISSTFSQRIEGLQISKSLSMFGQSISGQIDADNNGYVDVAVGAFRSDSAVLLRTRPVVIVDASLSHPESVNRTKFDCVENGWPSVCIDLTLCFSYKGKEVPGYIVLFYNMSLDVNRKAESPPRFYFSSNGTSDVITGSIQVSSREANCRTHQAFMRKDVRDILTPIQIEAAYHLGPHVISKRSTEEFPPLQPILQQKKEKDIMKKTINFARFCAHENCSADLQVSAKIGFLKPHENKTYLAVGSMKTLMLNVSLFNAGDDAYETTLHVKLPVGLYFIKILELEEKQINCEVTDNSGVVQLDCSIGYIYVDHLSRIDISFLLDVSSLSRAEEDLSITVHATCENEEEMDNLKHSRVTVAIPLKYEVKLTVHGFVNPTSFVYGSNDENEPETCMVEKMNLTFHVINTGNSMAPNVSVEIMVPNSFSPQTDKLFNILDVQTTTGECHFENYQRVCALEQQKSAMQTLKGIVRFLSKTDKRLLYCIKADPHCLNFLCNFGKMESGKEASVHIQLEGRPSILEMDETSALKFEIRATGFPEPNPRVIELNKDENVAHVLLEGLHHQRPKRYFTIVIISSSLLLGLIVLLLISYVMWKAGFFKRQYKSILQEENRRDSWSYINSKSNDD
T1 sequence (P05556 21-798): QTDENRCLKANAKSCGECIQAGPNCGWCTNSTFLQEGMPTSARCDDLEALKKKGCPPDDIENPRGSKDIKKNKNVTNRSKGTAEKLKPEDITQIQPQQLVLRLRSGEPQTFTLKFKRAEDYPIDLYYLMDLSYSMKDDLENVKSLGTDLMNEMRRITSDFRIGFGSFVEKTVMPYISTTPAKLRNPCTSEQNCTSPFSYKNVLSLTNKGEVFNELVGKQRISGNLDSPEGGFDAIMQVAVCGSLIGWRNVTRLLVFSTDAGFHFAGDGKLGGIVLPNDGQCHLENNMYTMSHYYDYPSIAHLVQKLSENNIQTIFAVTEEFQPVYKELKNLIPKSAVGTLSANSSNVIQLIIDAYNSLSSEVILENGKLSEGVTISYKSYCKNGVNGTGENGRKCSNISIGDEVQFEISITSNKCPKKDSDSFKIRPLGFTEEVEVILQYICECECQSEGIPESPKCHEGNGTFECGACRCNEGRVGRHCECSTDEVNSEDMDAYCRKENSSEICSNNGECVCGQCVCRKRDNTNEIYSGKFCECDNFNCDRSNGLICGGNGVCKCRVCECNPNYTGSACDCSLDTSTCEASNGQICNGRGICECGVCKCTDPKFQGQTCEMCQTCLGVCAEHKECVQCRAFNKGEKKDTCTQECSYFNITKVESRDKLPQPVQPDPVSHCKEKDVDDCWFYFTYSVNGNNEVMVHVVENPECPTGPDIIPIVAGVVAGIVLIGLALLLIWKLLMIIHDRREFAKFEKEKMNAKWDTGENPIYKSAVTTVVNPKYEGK

Row | Structure (SMILES) | IC50 [1, 3] [µM] | IC50 ([1]; whole blood from a single donor, FIG. 11, up to 4000 nM, read-out: IC50, VCAM binding) [µM] | reduction of the number of α4β7+ positive lymphocytes in mesenteric lymph nodes ([2]; 80 mg/kg orally daily days 6 to 9) [%] | reduction in α4β7+ T helper memory lymphocytes in mesenteric lymph nodes, dose dependence ([2]; FIG. 9)
1 | CC(C)C[C@@H]1NC(=O)c2ccc(-c3ccc(N4CCN(CCC(=O)N5CCN(c6ccc(-c7ccc8cc7CNC(=O)[C@@H]7CCCN7[C@H](C(=O)NC(C)(C)C)[C@H](C)NC(=O)[C@H]([C@@H](C)O)NC(=O)[C@H](CC(=O)O)NC(=O)[C@H](CC(C)C)NC8=O)cc6)CC5)CC4)cc3)c(c2)CNC(=O)[C@@H]2CCCN2[C@H](C(=O)NC(C)(C)C)[C@H](C)NC(=O)[C@H]([C@@H](C)O)NC(=O)[C@H](CC(=O)O)NC1=O [Compound 482] | ≥ 4 |  |  | 
2 | CC(C)C[C@@H]1NC(=O)C[C@H](CCCCN)N(C)C(=O)[C@H](CCCCNC(=O)CCCCCCCCC(=O)NCCCC[C@@H]2NC(=O)[C@@H]3CCCN3[C@H](C(=O)NC(C)(C)C)[C@H](C)NC(=O)[C@H]([C@@H](C)O)NC(=O)[C@H](CC(=O)O)NC(=O)[C@H](CC(C)C)NC(=O)C[C@H](CCCCN)N(C)C2=O)NC(=O)[C@@H]2CCCN2[C@H](C(=O)NC(C)(C)C)[C@H](C)NC(=O)[C@H]([C@@H](C)O)NC(=O)[C@H](CC(=O)O)NC1=O [Compound 530] | > 4 | ≥ 0.6 |  | 
3 | CC(C)C[C@@H]1NC(=O)c2ccc(-c3ccc(N4CCN(C(=O)c5ccccc5-c5ccccc5C(=O)N5CCN(c6ccc(-c7ccc8cc7CNC(=O)[C@@H]7CCCN7[C@H](C(=O)NC(C)(C)C)[C@H](C)NC(=O)[C@H]([C@@H](C)O)NC(=O)[C@H](CC(=O)O)NC(=O)[C@H](CC(C)C)NC8=O)cc6)CC5)CC4)cc3)c(c2)CNC(=O)[C@@H]2CCCN2[C@H](C(=O)NC(C)(C)C)[C@H](C)NC(=O)[C@H]([C@@H](C)O)NC(=O)[C@H](CC(=O)O)NC1=O [Compound 517] | 0.607 |  | 60 | dose-dependent reduction
4 | CC(C)C[C@@H]1NC(=O)c2ccc(-c3ccc(N4CCN(C(=O)CCOCCOCCOCCOCCOCCOCCOCCOCCOCCOCCC(=O)N5CCN(c6ccc(-c7ccc8cc7CNC(=O)[C@@H]7CCCN7[C@H](C(=O)NC(C)(C)C)[C@H](C)NC(=O)[C@H]([C@@H](C)O)NC(=O)[C@H](CC(=O)O)NC(=O)[C@H](CC(C)C)NC8=O)cc6)CC5)CC4)cc3)c(c2)CNC(=O)[C@@H]2CCCN2[C@H](C(=O)NC(C)(C)C)[C@H](C)NC(=O)[C@H]([C@@H](C)O)NC(=O)[C@H](CC(=O)O)NC1=O [Compound 511] | 20 |  |  | 
